# Test results from the supplement of paper PMC10307832.
# Key:
# Experiment in all cases: relative viability (nuclei count vs DMSO), 5 days (fraction); higher = more cells survive
# Vismodegib + OSI-027 = compound: CS(=O)(=O)c1ccc(C(=O)Nc2ccc(Cl)c(-c3ccccn3)c2)c(Cl)c1 [Vismodegib] + COc1cccc2cc(-c3nc([C@H]4CC[C@H](C(=O)O)CC4)n4ncnc(N)c34)[nH]c12 [OSI-027] (partner 0.5 µM)
# Summary of the method: (§1)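 Relative viability was taken as the ratio of nuclei in treated wells to nuclei in vehicle wells. Lung cancer cell lines in 1536-well plates received compounds by pin tool one day after seeding, either one drug alone or a fixed anchor-drug dose plus five library-drug doses (not always all listed) in √10 steps. Nuclei were counted on 4× images after 5 days of treatment, and values are medians of duplicate plates.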
# Vismodegib + AZD7762 = compound: CS(=O)(=O)c1ccc(C(=O)Nc2ccc(Cl)c(-c3ccccn3)c2)c(Cl)c1 [Vismodegib] + NC(=O)Nc1cc(-c2cccc(F)c2)sc1C(=O)N[C@H]1CCCNC1 [AZD7762] (partner 0.2 µM)
# Summary of the method: as §1
# VE-821 + Dasatinib = compound: CS(=O)(=O)c1ccc(-c2cnc(N)c(C(=O)Nc3ccccc3)n2)cc1 [VE-821] + Cc1nc(Nc2ncc(C(=O)Nc3c(C)cccc3Cl)s2)cc(N2CCN(CCO)CC2)n1 [Dasatinib] (partner 0.075 µM)
# Summary of the method: as §1
# VE-821 + Palbociclib = compound: CS(=O)(=O)c1ccc(-c2cnc(N)c(C(=O)Nc3ccccc3)n2)cc1 [VE-821] + CC(=O)c1c(C)c2cnc(Nc3ccc(N4CCNCC4)cn3)nc2n(C2CCCC2)c1=O [Palbociclib] (partner 0.5 µM)
# Summary of the method: as §1
Cell Line,relative viability (Vismodegib + OSI-027; first compound 0.08 µM),relative viability (Vismodegib + OSI-027; first compound 0.253 µM),relative viability (Vismodegib + OSI-027; first compound 0.8 µM),relative viability (Vismodegib + OSI-027; first compound 2.53 µM),relative viability (Vismodegib + OSI-027; first compound 8 µM),relative viability (Vismodegib + AZD7762; first compound 0.08 µM),relative viability (Vismodegib + AZD7762; first compound 0.253 µM),relative viability (Vismodegib + AZD7762; first compound 0.8 µM),relative viability (Vismodegib + AZD7762; first compound 2.53 µM),relative viability (Vismodegib + AZD7762; first compound 8 µM),relative viability (VE-821 + Dasatinib; first compound 0.08 µM),relative viability (VE-821 + Dasatinib; first compound 0.253 µM),relative viability (VE-821 + Dasatinib; first compound 0.8 µM),relative viability (VE-821 + Dasatinib; first compound 2.53 µM),relative viability (VE-821 + Dasatinib; first compound 8 µM),relative viability (VE-821 + Palbociclib; first compound 0.08 µM),relative viability (VE-821 + Palbociclib; first compound 0.253 µM),relative viability (VE-821 + Palbociclib; first compound 0.8 µM),relative viability (VE-821 + Palbociclib; first compound 2.53 µM),relative viability (VE-821 + Palbociclib; first compound 8 µM)
NCI-H2342,0.698,0.651,0.522,0.627,0.637,0.576,0.479,0.633,0.362,0.416,0.331,0.329,0.311,0.324,0.293,0.503,0.557,0.528,0.521,0.494
NCI-H2347,0.568,0.454,0.304,0.425,0.454,0.774,0.718,0.782,0.83,0.799,0.299,0.319,0.344,0.329,0.262,0.385,0.492,0.42,0.457,0.498
NCI-H2405,0.621,0.615,0.573,0.621,0.639,0.739,0.711,0.637,0.706,0.73,0.178,0.211,0.202,0.203,0.205,0.533,0.496,0.541,0.558,0.408
NCI-H3122,0.971,0.863,0.84,0.849,0.981,0.959,0.953,0.959,0.965,0.955,0.946,0.726,0.83,0.874,0.694,0.196,0.187,0.166,0.225,0.227
PC-3 [JPC-3],0.823,0.756,0.718,0.728,0.673,0.824,0.715,0.743,0.729,0.708,1.06,0.967,1.07,1.02,0.907,0.266,0.478,0.58,0.54,0.56
PC-14,0.748,0.686,0.797,0.738,0.836,0.301,0.326,0.458,0.272,0.353,0.231,0.238,0.269,0.229,0.0835,0.648,0.46,0.455,0.351,0.169
RERF-LC-KJ,0.678,0.568,0.621,0.593,0.487,1.09,0.881,0.959,0.974,0.967,0.924,0.651,0.582,0.69,0.582,1.2,1.01,0.973,0.929,0.792
SW 900,0.62,0.395,0.432,0.616,0.637,0.474,0.539,0.689,–,0.61,0.7,0.545,0.397,0.658,0.37,0.549,0.52,0.46,0.542,0.36
